# Results reported in ChEMBL document CHEMBL6134835, “Rezatapopt (PC14586): A First-in-Class Small Molecule p53 Y220C Mutant Protein Stabilizer in Clinical Trials” (J Med Chem, 2025).
# How the values were obtained:
# [1] = tested on: Cellular tumor antigen p53 (Homo sapiens), P04637 [Y220C]; experiment: Reactivation of N-terminal 6xHis-tagged recombinant p53 Y220C mutant (94 to 292 residues) (unknown origin) protein assessed as stabilization of Protein/DNA complex measuring substrate concentration required to increase DNA binding incubated for 48 mins by TR-FRET assay
# [2] = AUC (0 to last) in C57BL/6 mouse at 50 mg/kg, po measured for 24 hrs by LC-MS/MS analysis; format: ADME, organism-based; conditions: in vivo
# NUGC-3 [3] = experiment: Antitumor activity against human NUGC-3 cells xenografted in female Balb/c nude mouse assessed as tumor growth inhibition at 25 mg/kg, po relative to control; format: functional; conditions: read-out: TGI
# [4] = Cmax in C57BL/6 mouse at 50 mg/kg, po measured for 24 hrs by LC-MS/MS analysis; format: ADME, organism-based; conditions: in vivo
# NUGC-3 [5] = experiment: Antitumor activity against human NUGC-3 cells xenografted in female Balb/c nude mouse assessed as tumor growth inhibition at 50 mg/kg, po relative to control; format: functional; conditions: read-out: TGI
EC1.5 [1],AUC(0-t) at 24 h [2],Cmax [4],SMILES,inhibition in vivo at 25 mg/kg (NUGC-3 [3]),inhibition in vivo at 50 mg/kg (NUGC-3 [5])
0.054 µM,,,CN1CCC(Nc2cccc3c2cc(C#CCNc2ccc(C(C)(C)C#N)nc2)n3CC(F)(F)F)CC1,,
0.009 µM,163 µg·h/mL,16600 ng/mL,CNC(=O)c1ccc(NCC#Cc2cc3c(N[C@@H]4CCN(C)C[C@@H]4F)cccc3n2CC(F)(F)F)c(OC)c1 [REZATAPOPT],33%,71%
1.6 µM,,,CCN(CC)C1CCN(Cc2cc(C#CCNc3ccccc3)cc(I)c2O)CC1,,
37.2 µM,,,CCn1c2ccccc2c2cc(CNC)ccc21,,
13.6 µM,,,CCn1c(C#CCNc2ccccc2)cc2cc(CNC)ccc21,,
